One assay has as its system STAT3 phosphorylation. The assay can be described thus: Kinetics of STAT3 phosphorylation in developing Th17 cells. It is filed as cell-based, murine. As to conditions: TGFβ plus IL-6; 5 nM or 10 nM HF. The method, then: FIG. 6. […] FIG. 6A is a set of representative histograms displaying the kinetics of STAT3 phosphorylation in developing Th17 cells treated with or without halofuginone. Resting naïve T cells (grey, shaded peak), T cells activated in the presence of TGFβ plus IL-6 (TGFβ/IL-6) treated with 10 nM MAZ1310 (light gray trace), 5 nM HF (medium gray trace), or 10 nM HF (dark gray trace). T cells were fixed at the indicated times and intracellular phospho-STAT3 staining was performed.
(§1) Th17 differentiation is synergistically regulated by TGFβ and the pro-inflammatory cytokines IL-6 and IL-21. […] Since STAT3 is the major transducer of IL-6 and IL-21 signaling, the kinetics of STAT3 phosphorylation in HF-treated T cells were examined.

The subject of assay [1] is Human primary dermal fibroblasts. The assay can be described thus: Inhibition of cell spreading in a fibroblast model. It is filed as cell-based. The arrangement: key: “+++” vs. “++” vs. “+” in general denotes ˜4-fold differences in potency; “+++” vs. “++” vs. “+” in general denotes ˜4-fold differences in potency; “+++” vs. “++” vs. “+” in general denotes ˜4-fold differences in potency; “−” denotes no activity at any dose tested, up to 1000× the effective dose of halofuginone. As to conditions: spreading of cells assessed by light microscopy 28 hours after treatment. The method, then: The ability of halofuginone and analogs thereof to inhibit the spreading of freshly plated primary dermal fibroblasts was examined. Human primary dermal fibroblasts were replated and halofuginone added immediately after replating; spreading of cells was assessed by light microscopy 28 hours after treatment with compound. “+++” vs. “++” vs. “+” in general denotes ˜4-fold differences in potency. “−” denotes no activity at any dose tested, up to 1000× the effective dose of halofuginone.

Assay [2] relates to TGFβ-induced Smad phosphorylation and lymphocyte responses to TGFβ. The assay can be described thus: TGFβ signaling in T and B cells. The class given is cell-based, murine. The note with it: low dose HF; 10 μM SB-431542. Here is the method:
FIG. 10. […] FIG. 10A is a set of FACS analyses of CD4^+ CD25^− T cells activated in Th1 or Th2 polarizing conditions, either in the presence or absence of TGFβ. DMSO, 10 nM HF, 10 nM MAZ1310, or 10 μM SB-431542 added as indicated at the time of activation. Intracellular cytokine staining was performed on expanded T cells on day 5.
FIG. 10D depicts western blot analyses of purified CD4^+ CD25^− T cells treated with DMSO, 40 nM MAZ1310, titrating concentrations of HF (2.5-40 nM) or 10 μM SB-431542 for 30 minutes in complete medium supplemented with 0.1% fetal calf serum. T cells were then activated in the presence or absence of 3 ng/ml TGFβ. Whole cell extracts were prepared after 1 hour of stimulation and western blot analyses were performed using the indicated antibodies.
as §1
Whole cell lysates were generated from T cells activated for the indicated times. For STAT3 and Smad2/3 western blots cells were harvested, washed in PBS and lysed in 50 mM Tris, pH 7.4, 0.1% SDS, 1% Triton-X100, 140 mM NaCl, 1 mM EDTA, 1 mM EGTA supplemented with protease inhibitors tablets (Roche, Germany), 1 mM NaF and 1 mM Na3VO4. […]

Assay [3] concerns SV-MES mesangial cells (GCN2 Thr898, eIF2alpha Ser51 phosphorylation). The assay can be described thus: AAR activation in cultured fibroblastic cells, western blot. The class given is cell-based. As to conditions: 20 nM; 2 hours. From the text:
Duplicate cell samples are shown. […] Activated GCN2 phosphorylates eif2alpha at Ser 51, therefore this is an expected downstream outcome of AAR activation.

`O=C(CC1NCCCC1O)Cn1cnc2cc(Br)c(Cl)cc2c1=O` (stereo not shown) [Compound 1, 7-bromo-6-chloro-3-[3-(3-hydroxy-2-piperidinyl)-2-oxopropyl]-4(3H)-quinazolinone]: the STAT3 phosphorylation entry in the assay with STAT3 phosphorylation is listed as “decreased the maintenance of STAT3 phosphorylation, beginning around 12 hours post activation”. Moreover, the Fibroblast inhibition result in assay [1] is on record as “+++”. In addition, the “effect on TGFβ-induced Smad phosphorylation and other lymphocyte responses to TGFβ” value in assay [2] is given as “inhibited neither TGFβ-induced Smad phosphorylation nor a variety of other lymphocyte responses to TGFβ”. Also, the “AAR activation (GCN2 Thr898 and eIF2alpha Ser51 phosphorylation)” value in assay [3] was “activates the AAR”.

(Values after patent US9284297B2, “Halofuginone analogs for inhibition of tRNA synthetases and uses thereof” (President and Fellows of Harvard College, priority 2008, dated 2016).)
